# Reference: US11439148B2, “Pyrimidine derivatives” (SYNGENTA PARTICIPATIONS AG, priority 2017, dated 2022)
# Several values for one entry are separate records, joined by “and”; a condition that tells them apart may be missing. Equal entries are not always repeated.
# What was measured:
# Format in all cases: in vivo
# [1] = test system: four weed species (ABUTH, CHEAL, IPOHE, SETVI); experiment: Adjuvant efficacy with fomesafen, glasshouse spray test, average over all species; conditions: fomesafen sodium salt SL, mean over 100 and 200 g/ha, adjuvant 0.2% v/v (none in No Adjuvant rows), 21 days, average of ABUTH
# Experimental: (§1) The efficacy of adjuvants 1-12 as adjuvants for the herbicide fomesafen (as the sodium salt) were tested in a glasshouse against four weed species, sown into standard soil in pots and cultivated under controlled conditions in a glasshouse (at 24/18° C. day/night; 16 hours light, 65% humidity). Fomesafen sodium salt was added to the spray tank as a standard SL (soluble concentrate) formulation.
# (§2) The spray tests were also carried out using fomesafen in conjunction with adjuvants 1-12. Unless otherwise stated, the adjuvants were added to the spray solution at a rate of 0.2% v/v. All spray solutions also contained 12.5% v/v of iso-Propanol to normalise the retention of the sprays on the hydrophobic plant surfaces. The weed species and their BBCH growth stage at spraying were Abutilon theophrasti (ABUTH; growth stage 12-13), Chenopodium album (CHEAL; growth stage 15), Ipomea hederacea (IPOHE; growth stage 12), and Setaria viridis (SETVI; growth stage 14). Each spray test was replicated three times. The test plants were then grown in a glasshouse under controlled conditions (at 24/18° C. day/night; 16 hours light; 65% humidity) and watered twice a day.
# (§3) The efficacy of the herbicide was assessed visually and expressed as a percentage of the leaf area killed. Samples were assessed at a time period of 21 days following application. The results shown in Table 2 below are mean averages over the two rates of fomesafen, the three replicates […].
# [2] = test system: four weed species (ALOMY, AVEFA, LOLPE, SETVI); experiment: Adjuvant efficacy with pinoxaden, glasshouse spray test, average over all species; conditions: pinoxaden EC, mean over 7.5 and 15 g/ha, adjuvant 0.2% v/v (none in No Adjuvant rows), 21 days, average of ALOMY
# Experimental: as §1, with “pinoxaden” for “fomesafen (as the sodium salt)”, “20/16°” for “24/18°”, “light;” for “light,”, “Pinoxaden” for “Fomesafen sodium salt”, “EC (emulsifiable” for “SL (soluble”
# The spray tests were also carried out using pinoxaden in conjunction with adjuvants 1-12. The adjuvants were added to the spray solution at a rate of 0.2% v/v unless otherwise stated. All spray solutions also contained 10% w/w of iso-Propanol. The weed species and their BBCH growth stage at spraying were Avena fatua (AVEFA; growth stage 12), Lolium perenne (LOLPE; growth stage 13), Alopecurus myosuroides (ALOMY; growth stage 13), and Setaria viridis (SETVI; growth stage 13-14). Each spray test was replicated three times. The test plants were then grown in a glasshouse under controlled conditions (at 20/16° C. day/night; 16 hours light; 65% humidity) and watered twice a day. The efficacy of the herbicide was assessed visually and expressed as a percentage of the leaf area killed. Samples were assessed at a time period of 21 days following application. The results shown in Table 4 below are mean averages over the two rates of pinoxaden, and the three replicates.
# [3] = test system: Chenopodium album (CHEAL); experiment: Adjuvant efficacy with fomesafen, glasshouse spray test; conditions: fomesafen sodium salt SL, mean over 100 and 200 g/ha and 3 replicates; adjuvant 0.2% v/v (none in No Adjuvant rows); % leaf area killed, 21 days after application; Tests 1-4 separate runs
# Experimental: as §1, §2, §3
# [4] = test system: Abutilon theophrasti (ABUTH); experiment: as above; conditions: fomesafen sodium salt SL, mean over 100 and 200 g/ha and 3 replicates; adjuvant 0.2% v/v (none in No Adjuvant rows); % leaf area killed, 21 days after application; Tests 1-4 separate runs
# Experimental: as §1, §2, §3
# Setaria viridis (SETVI) = experiment: as above; conditions: fomesafen sodium salt SL, mean over 100 and 200 g/ha and 3 replicates; adjuvant 0.2% v/v (none in No Adjuvant rows); % leaf area killed, 21 days after application; Tests 1-4 separate runs
# Experimental: as §1, §2, §3
# Ipomea hederacea (IPOHE) = experiment: as above; conditions: fomesafen sodium salt SL, mean over 100 and 200 g/ha and 3 replicates; adjuvant 0.2% v/v (none in No Adjuvant rows); % leaf area killed, 21 days after application; Tests 1-4 separate runs
# Experimental: as §1, §2, §3
# [5] = test system: Digitaria sanguinalis (DIGSA); experiment: Adjuvant efficacy with mesotrione, glasshouse spray test; conditions: mesotrione SC, mean over 30 and 60 g/ha and 3 replicates; adjuvant 0.2% v/v (none in No Adjuvant rows); % leaf area killed, 21 days after application; Tests 1-4 separate runs
# Experimental: (§4) The efficacy of adjuvants 1-12 as an adjuvant for the herbicide mesotrione was tested in a glasshouse against four weed species sown into standard soil in pots and cultivated under controlled conditions in a glasshouse (at 24/18° C. day/night; 16 hours light; 65% humidity). Mesotrione was added to the spray tank as a standard SC (suspension concentrate) formulation.
# (§5) The spray tests were also carried out using mesotrione in conjunction with adjuvants 1-12. The adjuvants were added to the spray solution at a rate of 0.2% v/v unless otherwise stated. All spray solutions also contained 10% w/w of iso-Propanol. The weed species and their BBCH growth stage at spraying were Brachiaria platyphylla (BRAPP; growth stage 13-14) or Brachiaria plantaginea (BRAPL; growth stage 13-14), Commelina benghalensis (COMBE; growth stage 13), Digitaria sanguinalis (DIGSA; growth stage 14), and Polygonum convolvulus (POLCO; growth stage 13-14). Each spray test was replicated three times.
# (§6) The test plants were then grown in a glasshouse under controlled conditions (at 24/18° C. day/night; 16 hours light; 65% humidity) and watered twice a day. The efficacy of the herbicide was assessed visually and expressed as a percentage of the leaf area killed. Samples were assessed at a time period of 21 days following application. The results shown in Table 3 below are mean averages over the two rates of mesotrione and the three replicates.
# [6] = test system: Polygonum convolvulus (POLCO); experiment: as above; conditions: mesotrione SC, mean over 30 and 60 g/ha and 3 replicates; adjuvant 0.2% v/v (none in No Adjuvant rows); % leaf area killed, 21 days after application; Tests 1-4 separate runs
# Experimental: as §4, §5, §6
# [7] = test system: four weed species (ABUTH, CHEAL, DIGSA, SETVI); experiment: Adjuvant efficacy with nicosulfuron, glasshouse spray test, average over all species; conditions: nicosulfuron WG, mean over 15 and 60 g/ha, adjuvant 0.2% v/v (none in No Adjuvant rows), 21 days, average of ABUTH
# Experimental: as §4, with “adjuvants” for “an adjuvant”, “nicosulfuron were” for “mesotrione was”, “Nicosulfuron” for “Mesotrione”, “WG (water dispersible granule)” for “SC (suspension concentrate)”
# The spray tests were also carried out using nicosulfuron in conjunction with adjuvants 1-12. The adjuvant was added to the spray solution at a rate of 0.2% v/v. All spray solutions also contained 12.5% v/v of iso-Propanol. The weed species and their BBCH growth stage at spraying were Abutilon theophrasti (ABUTH; growth stage 13), Chenopodium album (CHEAL; growth stage 13-14), Digitaria sanguinalis (DIGSA; growth stage 11), and Setaria viridis (SETVI; growth stage 13). Each spray test was replicated three times. The test plants were then grown in a glasshouse under controlled conditions (at 24/18° C. day/night; 16 hours light; 65% humidity) and watered twice a day. The efficacy of the herbicide was assessed visually and expressed as a percentage of the leaf area killed. Samples were assessed at a time period of 21 days following application. The results shown in Table 1 below are mean averages over the two rates of nicosulfuron, and the three replicates.
SMILES,Mean % Herbicidal Activity Average over all Species [1],Mean % Herbicidal Activity Average over all Species [2],Mean % Herbicidal Activity CHEAL [3],Mean % Herbicidal Activity ABUTH [4],Mean % Herbicidal Activity SETVI (Setaria viridis (SETVI)),Mean % Herbicidal Activity IPOHE (Ipomea hederacea (IPOHE)),Mean % Herbicidal Activity DIGSA [5],Mean % Herbicidal Activity POLCO [6],Mean % Herbicidal Activity Average over all Species [7]
CCCCCCOc1cc(OCCOCCOC)ncn1 [Adjuvant 1],77%,55%,79%,74%,65%,91%,81%,81%,83%
CCCCCCOc1cc(OCCOCCOCCOCCOCCOCCOCCOCCOCCOCCOC)ncn1 [Adjuvant 2],68%,47%,68%,57%,53%,95%,79%,94%,82%
CCCCCCOc1cc(OCCOCCOCCOCCOCCOCCOCCOCCOCCOCCOCCOCCOCCOCCOCCOCCOCCOCCOCCOCCOC)ncn1 [Adjuvant 3],56%,44%,54%,47%,37%,88%,83%,92%,76%
CCCCCCCCCOc1cc(OCCOCCOCCOCCOCCOCCOCCOC)ncn1 [Adjuvant 4],61%,52%,45%,51%,53%,93%,83%,93%,73%
CCCCCCCCCOc1cc(OCCOCCOCCOCCOCCOCCOCCOCCOCCOCCOC)ncn1 [Adjuvant 5],57%,41%,55%,60%,49%,64%,72%,94%,63%
CCCCCCCCCCCCOc1cc(OCCOCCOCCOCCOCCOCCOCCOC)ncn1 [Adjuvant 6],50%,63%,80%,31%,25%,64%,83%,84%,71%
CCCCCCCCCCCCOc1cc(OCCOCCOCCOCCOCCOCCOCCOCCOCCOCCOC)ncn1 [Adjuvant 7],71%,84%,94%,46%,45%,98%,80%,70%,81%
CCCCCCCCCCCCCCCCOc1cc(OCCOCCOCCOCCOCCOCCOCCOCCOCCOCCOC)ncn1 [Adjuvant 8],60% and 75% and 43%,69% and 56% and 67%,78% and 65% and 73%,53% and 75% and 36%,17% and 65% and 13%,92% and 97% and 51%,84% and 81% and 83%,82% and 92% and 93%,80% and 85% and 86%
CCCCCCCCC=CCCCCCCCCOc1cc(OCCOCCOC)ncn1 [Adjuvant 9],67%,58%,64%,52%,64%,88%,82%,92%,80%
CCCCCCCCC=CCCCCCCCCOc1cc(OCCOCCOCCOCCOCCOCCOCCOCCOCCOCCOC)ncn1 [Adjuvant 10],68% and 46%,50%,60% and 88%,56% and 28%,65% and 17%,92% and 50%,84%,95%,81%
CCCCCCCCC=CCCCCCCCCOc1cc(OCCOCCOCCOCCOCCOCCOCCOCCOCCOCCOCCOCCOCCOCCOCCOCCOCCOCCOCCOCCOC)ncn1 [Adjuvant 11],66%,38%,80%,48%,39%,98%,83%,92%,82%
